Laboratory results from ChEMBL document CHEMBL1121759, “Aporphines, 36. Dopamine receptor interactions of trihydroxyaporphines. Synthesis, radioreceptor binding, and striatal adenylate cyclase stimulation of 2,10,11-trihydroxyaporphines in comparison with other hydroxylated aporphines” (J Med Chem, 1981).
Active and inactive are the calls of the source. The calls are words filed in the database; no cut-off is given here.

Target: T1, Adenylate cyclase (Rattus norvegicus) (UniProt D4A3N4+P26770+Q04400+P26769+Q03343+P40146+Q8CFM9+P21932)
Assay: Dopamine sensitive adenylate cyclase activity (stimulation) in homogenates of rat brain striatal tissue was assessed at 50 uM of compound; Inhibitis the cyclase activity
Format: tissue-based

**Q.** For `Oc1ccc2c(c1O)-c1cccc3c1[C@@H](C2)N(CCCl)CC3`, which Stimulation is on record?
**A.** Its Stimulation is “inactive”.

Target: T1, Adenylate cyclase (Rattus norvegicus)
Assay: Dopamine sensitive adenylate cyclase activity (stimulation) in homogenates of rat brain striatal tissue was assessed at 50 uM of compound; ++ = 41-60% incresae of cAMP above basal activity
Format: tissue-based

**Q.** `CCCN1CCc2cccc3c2[C@H]1Cc1ccc(O)c(O)c1-3` (stereo in doubt; 1c) was tested. Which Stimulation did it give?
**A.** The Stimulation was “Active”.

**Q.** Which Stimulation does the source give for `CN1CCc2cc(O)cc3c2[C@H]1Cc1ccc(O)c(O)c1-3` here?
**A.** Its Stimulation is “Active”.

Target: T1, Adenylate cyclase (Rattus norvegicus)
Assay: Dopamine sensitive adenylate cyclase activity (stimulation) in homogenates of rat brain striatal tissue was assessed at 50 uM of compound; +++ = 61-80% incresae of cAMP above basal activity
Format: tissue-based

**Q.** Which Stimulation does the source give for `CN1CCc2cccc3c2[C@H]1Cc1ccc(O)c(O)c1-3` here?
**A.** The Stimulation was “Partially active”.

**Q.** `CCCN1CCc2cccc3c2[C@H]1Cc1ccc(O)c(O)c1-3` (stereo in doubt; 1b) was tested. Which Stimulation did it give?
**A.** The Stimulation was “Partially active”.

Target: T1, Adenylate cyclase (Rattus norvegicus)
Assay: Dopamine sensitive adenylate cyclase activity (stimulation) in homogenates of rat brain striatal tissue was assessed at 50 uM; + = <40% increase of cAMP above basal activity
Format: tissue-based

**Q.** For `CCN1CCc2cc(O)cc3c2[C@H]1Cc1ccc(O)c(O)c1-3`, which Stimulation is on record?
**A.** The Stimulation was “Partially active”.

**Q.** How did the Stimulation turn out when `Oc1cc2c3c(c1)-c1c(ccc(O)c1O)C[C@H]3NCC2` was run?
**A.** The Stimulation was “Partially active”.

**Q.** For `C=CCN1CCc2cc(O)cc3c2[C@H]1Cc1ccc(O)c(O)c1-3`, which Stimulation is on record?
**A.** Its Stimulation is “Partially active”.

**Q.** For `OCCN1CCc2cccc3c2[C@H]1Cc1ccc(O)c(O)c1-3`, which Stimulation is on record?
**A.** Its Stimulation is “Partially active”.

**Q.** How did the Stimulation turn out when `CCCN1CCc2cc(O)cc3c2[C@H]1Cc1ccc(O)c(O)c1-3` was run?
**A.** The Stimulation was “Partially active”.

**Q.** `CCCN1CCc2cccc3c2[C@H]1Cc1cccc(O)c1-3` was tested. Which Stimulation did it give?
**A.** Its Stimulation is “Partially active”.

**Q.** With `CN1CCc2cccc3c2C1Cc1ccc(O)cc1-3` (stereo not drawn) as the molecule, how does the Stimulation read?
**A.** The Stimulation was “Partially active”.

**Q.** With `C#CCN1CCc2cc(O)cc3c2[C@H]1Cc1ccc(O)c(O)c1-3` as the molecule, how does the Stimulation read?
**A.** Its Stimulation is “Partially active”.
